From patent publication US8338582B2, “Anti-HIV immunogens and methods for inducing an immune response” (Fundacao de Amparo a Pesquisa do Estado de Sao Paulo, priority 2005, dated 2012)
Like-named read-outs stand apart in the source and are kept apart here.

Test system: peripheral blood mononuclear cells from HIV-1 seronegative individuals
Conditions: for IFN-γ spots/10^6 PBMC, Average (AV): average of 8 seronegative individuals; for IFN-γ spots/10^6 PBMC, Average (AV) / IFN-γ spots/10^6 PBMC: peptide 5 μM; for IFN-γ spots/10^6 PBMC, AV + 3SD: average plus 3 standard deviations, 8 seronegative individuals
Protocol: Step d) is achieved by synthesizing the peptides representing the epitopes of the present invention, followed by ELISPOT assay to detect IFN-γ-producing cells. For the purposes of the present invention, the positivity cutoff value used is ≧30 SFC IFN-γ/10^6 PBMC, calculated based on the levels of responses of HIV-1 seronegative patients
Synthetic peptide stocks were diluted to 25 mg/mL in dimethylsulphoxide, followed by ELISPOT assays for detection of IFN-γ-producing cells in response to the epitopes using peripheral blood mononuclear cells (PBMC) in 34 HIV-1+ patients of several clinical groups, long-term nonprogressors (LTNP), reconsituted, partial controllers, and progressors. Each epitope was tested in a concentration of 5 μM. The cryopreserved cells were maintained in culture for 16 hours, placed on plates in the presence of the epitopes, incubated for a further 18 hours, washed and ELISPOT plates were developed for the identification of spot-forming cells/Interferon-γ-producing cells (IFN-γ SFC), which were then counted in an automated counter (Zeiss KS ELISpot/Axioplan 2).

Row | Sequence | IFN-γ spots/10^6 PBMC, Average (AV) [spots/10^6 PBMC] | IFN-γ spots/10^6 PBMC, AV + 3SD [spots/10^6 PBMC] | IFN-γ spots/10^6 PBMC (seronegative individual C#01) [spots/10^6 PBMC] | IFN-γ spots/10^6 PBMC (seronegative individual C#02) [spots/10^6 PBMC] | IFN-γ spots/10^6 PBMC (seronegative individual C#03) [spots/10^6 PBMC] | IFN-γ spots/10^6 PBMC (seronegative individual C#04) [spots/10^6 PBMC] | IFN-γ spots/10^6 PBMC (seronegative individual C#05) [spots/10^6 PBMC] | IFN-γ spots/10^6 PBMC (seronegative individual C#06) [spots/10^6 PBMC] | IFN-γ spots/10^6 PBMC (seronegative individual C#07) [spots/10^6 PBMC] | IFN-γ spots/10^6 PBMC (seronegative individual C#08) [spots/10^6 PBMC]
1 | EAIIRILQQLLFIHF [vpr 2] | 4.6 | 24.2 | 0 | 12 | 15 | 0 | 0 | 0 | 0 | 10
2 | ALFYKLDVVPID [env 3] | 1.5 | 10 | 5 | 0 | 0 | 7 | 0 | 0 | 0 | 0
3 | SLQYLALVALVAPKK [vif 2] | 3.1 | 19.7 | 0 | 8 | 2 | 0 | 0 | 0 | 0 | 15
4 | TMLLGMLMICSAA [env 2] | 3.4 | 19.7 | 0 | 7 | 5 | 0 | 0 | 0 | 0 | 15
5 | KRWIILGLNKIVRMYSPTSI [gag 3] | 3.6 | 20 | 0 | 12 | 5 | 12 | 0 | 0 | 0 | 0
6 | SELYLYKVVKIEPLGVAP [env 5] | 0.6 | 5.9 | 0 | 0 | 5 | 0 | 0 | 0 | 0 | 0
7 | GKIILVAVHVASGYI [pol 3] | 0.2 | 2.4 | 0 | 2 | 0 | 0 | 0 | 0 | 0 | 0
8 | VLEWRFDSRLAFHHV [nef 1] | 4.4 | 17.7 | 0 | 3 | 7 | 12 | 8 | 0 | 0 | 5
